# Measured values from US20240109918A1, “HETEROCYCLIC COMPOUNDS AND USES THEREOF” (Kumquat Biosciences Inc., priority 2022, published 2024).
# pIC50: −log10 of the molar value.
# Experiments:
# KRASG12D = molecular target: T1, KRASG12D (Homo sapiens, UniProt P01116, G12D); experiment: Bio-Biochem-PPI-HTRF Ras-SOS1 interaction assay (KRAS G12D); assay type: biochemical; conditions: 5 nM
# T1 construct: made in house; host or cells: E. coli BL21 (DE3)
# Summary of the method: (§1)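 HTRF readout (ex 337 nm; em 620 and 665 nm) after ≥~10 min incubation; IC50 fitted from 665/620 ratio. GST-K-Ras wt or G12D plus anti-GST-Eu(K), His-hSOS1 plus anti-6His-XL665; duplicate dilutions, 10 μM top.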
# KRASwt = molecular target: T2, KRASwt (Homo sapiens, UniProt P01116); experiment: Bio-Biochem-PPI-HTRF Ras-SOS1 interaction assay (KRAS wt); assay type: biochemical; conditions: 5 nM
# T2 construct: made in house; host or cells: E. coli BL21 (DE3)
# T2 sequence (P01116 1-188 isoform P01116-2): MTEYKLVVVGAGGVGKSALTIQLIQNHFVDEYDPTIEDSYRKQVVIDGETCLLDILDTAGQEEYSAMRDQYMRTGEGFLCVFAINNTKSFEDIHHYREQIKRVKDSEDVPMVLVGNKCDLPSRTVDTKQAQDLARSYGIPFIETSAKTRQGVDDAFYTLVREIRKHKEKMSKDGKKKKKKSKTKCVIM
# Summary of the method: as §1
# T1 sequence (P01116 1-188 isoform P01116-2 G12D): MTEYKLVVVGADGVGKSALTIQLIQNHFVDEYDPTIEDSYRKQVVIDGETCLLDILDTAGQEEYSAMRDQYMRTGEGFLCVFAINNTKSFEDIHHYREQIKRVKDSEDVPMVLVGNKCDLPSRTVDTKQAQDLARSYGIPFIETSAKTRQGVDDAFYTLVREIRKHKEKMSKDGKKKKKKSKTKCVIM
SMILES,pIC50 (KRASG12D),pIC50 (KRASwt)
"N#Cc1c(N)sc2c(F)ccc(-c3c(Cl)cc4c(N5CCCCC6(CN(C(=O)C7CC7C7CC7)C6)C5)nc(OC[C@@]56CCCN5C[C@H](F)C6)nc4c3F)c12 (stereo partly drawn) [compound 261, 4-(4-(2-([1,1′-bi (cyclopropane)]-2-carbonyl)-2,6-diazaspiro[3.6]decan-6-yl)-6-chloro-8-fluoro-2-(((2R,7aS)-2-fluorotetrahydro-1H-pyrrolizin-7a(5H)-yl)methoxy)quinazolin-7-yl)-2-amino-7-fluorobenzo[b] thiophene-3-carbonitrile]",> 5.30,> 5.30
"N#Cc1c(N)sc2c(F)ccc(-c3c(Cl)cc4c(N5CCOCC6(CN(C(=O)[C@@H]7CC7(F)F)C6)C5)nc(OC[C@@]56CCCN5C[C@H](F)C6)nc4c3F)c12 [compound 239, 2-amino-4-(6-chloro-4-(2-((S)-2,2-difluorocyclopropane-1-carbonyl)-6-oxa-2,9-diazaspiro[3.6]decan-9-yl)-8-fluoro-2-(((2R,7aS)-2-fluorotetrahydro-1H-pyrrolizin-7a(5H)-yl)methoxy)quinazolin-7-yl)-7-fluorobenzo[b]thiophene-3-carbonitrile]",> 5.30,> 5.30
"N#CCC1(C(=O)N2CC3(CCCCN(c4nc(OC[C@@]56CCCN5C[C@H](F)C6)nc5c(F)c(-c6ccc(F)c7sc(N)c(C#N)c67)c(Cl)cc45)C3)C2)CCC1 [compound 216, 2-amino-4-(6-chloro-4-(2-(1-(cyanomethyl)cyclobutane-1-carbonyl)-2,6-diazaspiro[3.6]decan-6-yl)-8-fluoro-2-(((2R,7aS)-2-fluorotetrahydro-1H-pyrrolizin-7a(5H)-yl)methoxy)quinazolin-7-yl)-7-fluorobenzo[b]thiophene-3-carbonitrile]",> 5.30,> 5.30
"N#Cc1c(N)sc2c(F)ccc(-c3c(Cl)cc4c(N5CC(F)(F)CCC6(CN(C(=O)[C@@H]7CC7(F)F)C6)C5)nc(OC[C@@]56CCCN5C[C@H](F)C6)nc4c3F)c12 [compound 232, 2-amino-4-(6-chloro-4-(2-((S)-2,2-difluorocyclopropane-1-carbonyl)-8,8-difluoro-2,6-diazaspiro[3.6]decan-6-yl)-8-fluoro-2-(((2R,7aS)-2-fluorotetrahydro-1H-pyrrolizin-7a(5H)-yl)methoxy)quinazolin-7-yl)-7-fluorobenzo[b]thiophene-3-carbonitrile]",> 5.30,> 5.30
"N#Cc1c(N)sc2c(F)ccc(-c3c(Cl)cc4c(N5CC(F)(F)OC6(CN(C(=O)C7CC7(F)F)C6)C5)nc(OC[C@@]56CCCN5C[C@H](F)C6)nc4c3F)c12 (stereo partly drawn) [compound 167, 2-amino-4-(6-chloro-4-(2-(2,2-difluorocyclopropane-1-carbonyl)-6,6-difluoro-5-oxa-2,8-diazaspiro [3.5]nonan-8-yl)-8-fluoro-2-(((2R,7aS)-2-fluorotetrahydro-1H-pyrrolizin-7a(5H)-yl)methoxy)quinazolin-7-yl)-7-fluorobenzo[b] thiophene-3-carbonitrile]",> 5.30,> 5.30
"N#Cc1c(N)sc2c(F)ccc(-c3c(Cl)cc4c(N5CCCCC6(CN(C(=O)C7(C#N)CC7)C6)C5)nc(OC[C@@]56CCCN5C[C@H](F)C6)nc4c3F)c12 [compound 242, 2-amino-4-(6-chloro-4-(2-(1-cyanocyclopropane-1-carbonyl)-2,6-diazaspiro[3.6]decan-6-yl)-8-fluoro-2-(((2R,7aS)-2-fluorotetrahydro-1H-pyrrolizin-7a(5H)-yl)methoxy)quinazolin-7-yl)-7-fluorobenzo[b]thiophene-3-carbonitrile]",> 5.30,> 5.30
"N#Cc1c(N)sc2c(F)ccc(-c3c(Cl)cc4c(N5CCCCC6(CN(C(=O)C(F)F)C6)C5)nc(OC[C@@]56CCCN5C[C@H](F)C6)nc4c3F)c12 [compound 317, 2-amino-4-(6-chloro-4-(2-(2,2-difluoroacetyl)-2,6-diazaspiro[3.6]decan-6-yl)-8-fluoro-2-(((2R,7aS)-2-fluorotetrahydro-1H-pyrrolizin-7a(5H)-yl)methoxy)quinazolin-7-yl)-7-fluorobenzo[b]thiophene-3-carbonitrile]",> 5.30,> 5.30
"N#Cc1c(N)sc2c(F)ccc(-c3c(Cl)cc4c(N5CCC6(CN(C#N)C6)C5)nc(OC[C@@]56CCCN5C[C@H](F)C6)nc4c3F)c12 [compound 182, 6-(7-(2-amino-3-cyano-7-fluorobenzo[b]thiophen-4-yl)-6-chloro-8-fluoro-2-(((2R,7aS)-2-fluorotetrahydro-1H-pyrrolizin-7a(5H)-yl)methoxy)quinazolin-4-yl)-2,6-diazaspiro[3.4] octane-2-carbonitrile]",> 5.30,> 5.30
"N#Cc1c(N)sc2c(F)ccc(-c3c(Cl)cc4c(N5CCCCC6(CN(C(=O)CC7CCO7)C6)C5)nc(OC[C@@]56CCCN5C[C@H](F)C6)nc4c3F)c12 (stereo partly drawn) [compound 203, 2-amino-4-(6-chloro-8-fluoro-2-(((2R,7aS)-2-fluorotetrahydro-1H-pyrrolizin-7a(5H)-yl)methoxy)-4-(2-(2-(oxetan-2-yl)acetyl)-2,6-diazaspiro[3.6]decan-6-yl)quinazolin-7-yl)-7-fluorobenzo[b]thiophene-3-carbonitrile]",> 5.30,> 5.30
"N#Cc1c(N)sc2c(F)ccc(-c3c(F)c4nc(OC[C@@]56CCCN5C[C@H](F)C6)nc(N5CCCCC6(CN(C(=O)C7CC7(F)F)C6)C5)c4c(=O)n3C3CC3)c12 (stereo partly drawn) [compound 246, 2-amino-4-(6-cyclopropyl-4-(2-(2,2-difluorocyclopropane-1-carbonyl)-2,6-diazaspiro[3.6]decan-6-yl)-8-fluoro-2-(((2R,7aS)-2-fluorotetrahydro-1H-pyrrolizin-7a(5H)-yl)methoxy)-5-oxo-5,6-dihydropyrido[4,3-d]pyrimidin-7-yl)-7-fluorobenzo[b]thiophene-3-carbonitrile]",> 5.30,> 5.30
"Nc1nc2c(-c3c(Cl)cc4c(N5CCNC6(CNC6)C5)nc(OC[C@@]56CCCN5C[C@H](F)C6)nc4c3F)ccc(F)c2s1 [compound 116, 4-(6-chloro-8-fluoro-2-(((2R,7aS)-2-fluorotetrahydro-1H-pyrrolizin-7a(5H)-yl)methoxy)-4-(2,5,8-triazaspiro[3.5]nonan-8-yl)quinazolin-7-yl)-7-fluorobenzo[d]thiazol-2-amine]",> 5.30,> 5.30
"C[C@H](Oc1nc(N2CCCC3(CNC3)C2)c2cc(Cl)c(-c3ccc(F)c4sc(N)c(C#N)c34)c(F)c2n1)[C@@H]1CCCN1C [compound 122, 2-amino-4-(6-chloro-8-fluoro-2-((S)-1-((S)-1-methylpyrrolidin-2-yl)ethoxy)-4-(2,6-diazaspiro[3.5]nonan-6-yl)quinazolin-7-yl)-7-fluorobenzo[b]thiophene-3-carbonitrile]",> 5.30,> 5.30
"Nc1nc2c(-c3c(Cl)cc4c(N5CCC6(CC5)CN(C(=O)C(F)(F)F)C6)nc(OC[C@@]56CCCN5C[C@H](F)C6)nc4c3F)ccc(F)c2s1 [compound 168, 1-(7-(7-(2-amino-7-fluorobenzo[d]thiazol-4-yl)-6-chloro-8-fluoro-2-(((2R,7aS)-2-fluorotetrahydro-1H-pyrrolizin-7a(5H)-yl)methoxy)quinazolin-4-yl)-2,7-diazaspiro[3.5]nonan-2-yl)-2,2,2-trifluoroethan-1-one]",≤ 5.30,> 5.30
"N#CCC1CCN(c2nc(OC[C@@]34CCCN3C[C@H](F)C4)nc3c(F)c(-c4ccc(F)c5sc(N)c(C#N)c45)c(Cl)cc23)CC2(C1)CN(C(=O)C1CC1(F)F)C2 (stereo partly drawn) [compound 324, 2-amino-4-(6-chloro-4-(9-(cyanomethyl)-2-(2,2-difluorocyclopropane-1-carbonyl)-2,6-diazaspiro[3.6]decan-6-yl)-8-fluoro-2-(((2R,7aS)-2-fluorotetrahydro-1H-pyrrolizin-7a(5H)-yl)methoxy)quinazolin-7-yl)-7-fluorobenzo[b]thiophene-3-carbonitrile]",> 5.30,> 5.30
"N#Cc1c(N)sc2c(F)ccc(-c3c(Cl)cc4c(N5CCOC6(CN(C(=O)c7ccnn7C(F)(F)F)C6)C5)nc(OC[C@@]56CCCN5C[C@H](F)C6)nc4c3F)c12 [compound 265, 2-amino-4-(6-chloro-8-fluoro-2-(((2R,7aS)-2-fluorotetrahydro-1H-pyrrolizin-7a(5H)-yl)methoxy)-4-(2-(1-(trifluoromethyl)-1H-pyrazole-5-carbonyl)-5-oxa-2,8-diazaspiro[3.5]nonan-8-yl)quinazolin-7-yl)-7-fluorobenzo[b]thiophene-3-carbonitrile]",> 5.30,> 5.30
"Nc1nc2c(-c3c(Cl)cc4c(N5CCOC6(C5)CN(S(=O)(=O)F)C6)nc(OC[C@@]56CCCN5C[C@H](F)C6)nc4c3F)ccc(F)c2s1 [compound 179, 8-(7-(2-amino-7-fluorobenzo[d]thiazol-4-yl)-6-chloro-8-fluoro-2-(((2R,7aS)-2-fluorotetrahydro-1H-pyrrolizin-7a(5H)-yl)methoxy)quinazolin-4-yl)-5-oxa-2,8-diazaspiro[3.5]nonane-2-sulfonyl fluoride]",≤ 5.30,> 5.30
"N#Cc1c(N)sc2c(F)ccc(-c3c(Cl)cc4c(N5CCCCC6(C5)CN(S(=O)(=O)C5CC5)C6)nc(OC[C@@]56CCCN5C[C@H](F)C6)nc4c3F)c12 [compound 195, 2-amino-4-(6-chloro-4-(2-(cyclopropylsulfonyl)-2,6-diazaspiro[3.6]decan-6-yl)-8-fluoro-2-(((2R,7aS)-2-fluorotetrahydro-1H-pyrrolizin-7a(5H)-yl)methoxy)quinazolin-7-yl)-7-fluorobenzo[b]thiophene-3-carbonitrile]",> 5.30,> 5.30
